# Source: patent publication EP3593819A1, “COMPOSITIONS FOR THERAPEUTIC USES CONTAINING 5-HTP AND CARBIDOPA” (Medday Pharmaceuticals, priority 2018, dated 2020)
# Like-named read-outs stand apart in the source and are kept apart here.
# Columns and labels:
# [1] = UV-measured solubility of 5-HTP and carbidopa; assay type: physicochemical
# Protocol: The individual solubility of 5-HTP and carbidopa was assessed and compared to the data in the literature.
# Table 2. Solubility results
# [2] = Second wave of solubility testing with acidified vehicles and combinations; assay type: physicochemical; conditions: 40% (w/v) HP-3-cyclodextrin + 38.4 mg/mL citric acid, pH2.0, compared to similar solution containing only 20% (w/v) HP-3-cyclodextrin
# Protocol: Based on the outcome of these solubility tests, a second wave of solubility testing was performed, with acidified vehicles and combinations thereof.
# The highest solubility was obtained in 40% (w/v) HP-3-cyclodextrin + 38.4 mg/mL citric acid, pH2.0, for both APIs (Active Pharmaceutical Ingredients). The marginal increase in solubility in this vehicle, compared to similar solution containing only 20% (w/v) HP-3-cyclodextrin is only -20% for 5-HTP and -40% for carbidopa. Therefore, and since dosing of HP-3-cyclodextrin is limited to about 8 - 16 g/day (for max. 14 days, short-term Phase I studies), it was foreseen to use the vehicle containing only 20% HP-b-cyclodextrin as the first choice for dosing safety reasons, i.e.: • for a 600 mg 5-HTP/60 mg carbidopa dose with a 30 mg/mL 5-HTP/3 mg/mL carbidopa solution in solvent A (40% HP-β-CD), 20 mL solution is required, corresponding with an intake of 8 g HP-β-CD, and; • for a 600 mg 5-HTP/60 mg carbidopa dose with a 30 mg/mL 5-HTP/3 mg/mL carbidopa solution in solvent B (20% HP-β-CD), 20 mL solution is required, corresponding with an intake of only 4 g HP-β-CD.
# [3] = Screening stress test study on separate reference solutions and a mix solution; assay type: physicochemical
# Protocol: Stress studies were performed on the separated reference solutions and a mix solution under heat (60°C for 24 h), and under acidic, basic, or oxidative (H2O2) conditions, and ICH light (700 W/m^2 for 8 h) conditions.
# [4] = cited from earlier work
# [5] = 0.1N HCl, simulated gastric fluid, 0.1N HCI
# [6] = 5% Soluplus in water, aqueous with cosolvent or surfactant or cyclodextrin
# [7] = 10% w/v M-β-cyclodextrin in water (Kleptose crysmeb), aqueous with cosolvent or surfactant or cyclodextrin
# [8] = 20% w/v HP-β-cyclodextrin in water (Kleptose), aqueous with cosolvent or surfactant or cyclodextrin, 20% w/v HP-β-cydodextrin in water (Kleptose)
# [9] = Ethanol, organic solvent or mixture
# [10] = Kolliphor RH40 (5% in water), aqueous with cosolvent or surfactant or cyclodextrin
# [11] = PEG400, organic solvent or mixture
# [12] = Polysorbate 20 (5% in water), aqueous with cosolvent or surfactant or cyclodextrin
# [13] = Propylene glycol, organic solvent or mixture
# [14] = Sepiclear (5% in water), aqueous with cosolvent or surfactant or cyclodextrin
# [15] = Solutol HS15 (5% in water), aqueous with cosolvent or surfactant or cyclodextrin
# [16] = Transcutol HP, organic solvent or mixture
# [17] = oil or lipid, Labrafac lipophile, accurate measurement not possible due to diverging spectrum
# [18] = oil or lipid, Sunflower oil, accurate measurement not possible due to diverging spectrum
# [19] = pH 5, aqueous buffer, Phosphate buffer, pH5
# [20] = pH 6.8, aqueous buffer, Phosphate buffer, pH6.8
# [21] = pH 9, aqueous buffer, Phosphate buffer, pH9
# [22] = separate solution, ICH light (700 W/m^2 for 8 h)
# [23] = separate solution, acidic conditions, immediate, no further degradation after 24 h
# [24] = separate solution, basic medium, after 24 h
# [25] = separate solution, heat (60°C for 24 h)
# [26] = separate solution, oxidative (H2O2) stress, T0 and T24h
SMILES,"solubility [1, 5] [µg/mL]","solubility [1, 6] [µg/mL]","solubility [1, 7] [µg/mL]","solubility [1, 8] [µg/mL]","solubility [1, 9] [µg/mL]","solubility [1, 10] [µg/mL]","solubility ([1]; Labrasol ALF, oil or lipid) [µg/mL]","solubility [1, 11] [µg/mL]","solubility [1, 12] [µg/mL]","solubility [1, 13] [µg/mL]","solubility [1, 14] [µg/mL]","solubility [1, 15] [µg/mL]","solubility [1, 16] [µg/mL]","solubility [1, 17] [µg/mL]","solubility [1, 18] [µg/mL]","solubility [1, 19] [µg/mL]","solubility [1, 20] [µg/mL]","solubility [1, 21] [µg/mL]",marginal increase in solubility [2] [%],"degradation [3, 22]",further results
"N[C@@H](Cc1c[nH]c2ccc(O)cc12)C(=O)O [5-HTP, (2S)-2-amino-3-(5-hydroxy-1H-indol-3-yl)propanoic acid]",29400,12400,13500,17000,5100,9500,4800,2300,9400,35400,14500,9000,13700,< 10000,< 10000,8400,8900,9300,-20,about 15%,"degradation ([3]; mix solution of 5-HTP and carbidopa, all stress conditions): mainly light and acidic stress influenced the degradation; degradation [3, 23]: not sensitive; degradation [3, 24]: about 15%; degradation [3, 25]: not sensitive; degradation [3, 26]: not sensitive; solubility ([4]; Water): 1 - 10^(1) mg/mL"
"C[C@@](Cc1ccc(O)c(O)c1)(NN)C(=O)O [Carbidopa, (2S)-3-(3,4-dihydroxyphenyl)-2-hydrazinyl-2-methylpropanoic acid]",11800,12900,2800,3100,70,1500,12800,1500,1400,15000,3100,1400,600,< 10000,< 10000,1500,2100,4700,-40,about 88%,"degradation [3, 23]: more than 20%; degradation [3, 24]: about 30%; degradation [3, 25]: 90%; degradation [3, 26]: did not influence; stability in solution ([3]; stress studies, overall): very unstable in solution and is quickly degraded; solubility ([4]; 3N HCI): 100 - 1000 ^(3) mg/mL; solubility ([4]; Acetone): < 0.1 ^(3) mg/mL; solubility ([4]; Chloroform): < 0.1 ^(2) mg/mL; solubility ([4]; Ethanol): 0.1 - 1 ^(2) mg/mL; solubility ([4]; Ether): < 0.1 ^(3) mg/mL; solubility ([4]; Methanol): 1 - 10 ^(3) mg/mL; solubility ([4]; Methylene chloride): < 0.1 ^(3) mg/mL; solubility ([4]; Water): 1 - 10 ^(2) mg/mL"
